Laboratory results: US20250082674A1, “METHODS OF TREATING COPPER METABOLISM-ASSOCIATED DISEASES OR DISORDERS” (priority 2021, published 2025)
Several values for one entry are separate records, joined by “and”; a condition that tells them apart may be missing. Equal entries are not always repeated. Where two headings read alike, the source gives them in different places.

Legend:
[1] = test system: patients with Wilson disease (WD)
Excerpt: The UWDRS Part II total score results for this pooled population are presented in Table 16 and FIG. 13 and the UWDRS Part III total score results are in Table 17 and FIG. 14. The UWDRS Part III Functional Subscale (comprised of the items arising from a chair, gait, handwriting and speech) results for this pooled population are presented in Table 18 and FIG. 15.

[2] = test system: ^64CuCl2 (^64Cu) intestinal absorption and hepatic copper uptake; assay: Example 2: Copper Absorption study, oral 64Cu PET-CT in healthy subjects; format: in vivo, human
Procedure: Blood was collected at several time points to assess plasma copper kinetics. The study was carried out as a randomized, placebo-controlled intervention study. […] The study assessed the previously listed organs and the effect of anti-copper treatment by comparing the mean standard uptake value (SUV) in the organs of interest. […] The dynamic baseline scans and the subsequent static scans were compared across all treatments.

copper = assay: Study 301: plasma copper pharmacodynamics (dNCC, LBC, plasma total copper; daily mean AUEC); format: in vivo, human; conditions: for Mean Daily dNCC AUEC0-48w, Mean (SD): Full Analysis Set; for Mean Daily dNCC AUEC0-48w, Mean (SD) / Mean Daily dNCC AUEC0-48w, LSM (SE): multiple imputation
Excerpt: FIG. 1 provides a schematic view of the study design. […] This study is referred throughout as Study 301.
The primary endpoint integrated copper mobilization and sequestration (i.e., copper control) throughout the 48-week Primary Treatment Period by assessment of daily mean area under the effect-time curve (AUEC) of directly measured non-ceruloplasmin-bound copper (dNCC) concentration. […] Measurement of dNCC in plasma is highly sensitive and accurate, requiring no special formulas or assumptions. As proposed, dNCC AUEC0-48W is an indirect measure of copper mobilization and sequestration.
This assessment is also applicable to SoC treatments. In addition, plasma Cp, CpC, plasma total copper, and LBC were measured with AUEC calculated for plasma total copper and LBC.
Pharmacodynamics: Blood samples were collected to directly measure plasma total copper, PUF copper, dNCC, and LBC. Calculations may be performed for cNCC and cNCCconnected, the latter of which is non-ceruloplasmin-bound and non-molybdenum-albumin-bound copper.
The AUEC for dNCC concentration was calculated using the trapezoidal rule, and then divided by number of days to yield a mean daily AUEC plasma dNCC concentration from baseline to Week 48 (expressed as μmol/L and described as AUEC0-48W).
Tests were performed at a significance level of 0.05 (2-sided).

[3] = healthy subjects, after 15 hours
[4] = Study 301, Cohort 1, lower part of Table 5
[5] = Study 301, Cohort 2, lower part of Table 5
[6] = Study 301, Overall, lower part of Table 5

Bis-choline tetrathiomolybdate [BC-TTM]
UWDRS Part III Functional Subscale (Range 0-10) LSM change from baseline ([1]; BC-TTM exposure 264 wks): −0.818 | UWDRS Part III Functional Subscale (Range 0-10) Mean change from baseline ([1]; BC-TTM exposure 264 wks): −0.995 | UWDRS Part III (Range 0-175) Mean ([1]; Baseline, observed value): 15.43 | UWDRS Part III Functional Subscale (Range 0-10) Mean ([1]; Baseline, observed value): 1.590 | UWDRS Part II, Part III and Part III Functional Subscale scores over up to 5 years ([1]; Pooled Studies 301 and 201): continuing improvement | UWDRS Part II Score (Range 0-40), change from baseline, Mean (SD) ([1]; Pooled Studies 301 and 201, BC-TTM exposure 4 weeks): −0.3 (2.28) | UWDRS Part II Score (Range 0-40), change from baseline, Mean (SD) ([1]; Pooled Studies 301 and 201, BC-TTM exposure 12 weeks): −0.4 (2.76) | UWDRS Part II Score (Range 0-40), change from baseline, Mean (SD) ([1]; Pooled Studies 301 and 201, BC-TTM exposure 24 weeks): −0.4 (3.42) | UWDRS Part II Score (Range 0-40), change from baseline, Mean (SD) ([1]; Pooled Studies 301 and 201, BC-TTM exposure 36 weeks): −0.9 (4.11) | UWDRS Part II Score (Range 0-40), change from baseline, Mean (SD) ([1]; Pooled Studies 301 and 201, BC-TTM exposure 48 weeks): −1.2 (4.24) | UWDRS Part II Score (Range 0-40), change from baseline, Mean (SD) ([1]; Pooled Studies 301 and 201, BC-TTM exposure 60 weeks): −1.4 (4.35) | UWDRS Part II Score (Range 0-40), change from baseline, Mean (SD) ([1]; Pooled Studies 301 and 201, BC-TTM exposure 72 weeks): −1.9 (4.74) | UWDRS Part II Score (Range 0-40), change from baseline, Mean (SD) ([1]; Pooled Studies 301 and 201, BC-TTM exposure 96 weeks): −2.5 (6.11) | UWDRS Part II Score (Range 0-40), change from baseline, Mean (SD) ([1]; Pooled Studies 301 and 201, BC-TTM exposure 120 weeks): −3.1 (6.82) | UWDRS Part II Score (Range 0-40), change from baseline, Mean (SD) ([1]; Pooled Studies 301 and 201, BC-TTM exposure 144 weeks): −3.3 (6.61) | UWDRS Part II Score (Range 0-40), change from baseline, Mean (SD) ([1]; Pooled Studies 301 and 201, BC-TTM exposure 168 weeks): −6.2 (10.17) | UWDRS Part II Score (Range 0-40), change from baseline, Mean (SD) ([1]; Pooled Studies 301 and 201, BC-TTM exposure 192 weeks): −5.9 (9.88) | UWDRS Part II Score (Range 0-40), change from baseline, Mean (SD) ([1]; Pooled Studies 301 and 201, BC-TTM exposure 216 weeks): −7.1 (10.90) | UWDRS Part II Score (Range 0-40), change from baseline, Mean (SD) ([1]; Pooled Studies 301 and 201, BC-TTM exposure 240 weeks): −6.6 (10.09) | UWDRS Part II Score (Range 0-40), change from baseline, Mean (SD) ([1]; Pooled Studies 301 and 201, BC-TTM exposure 264 weeks): −6.2 (9.02) | copper uptake in the liver one hour after oral 64Cu tracer ([2]; healthy subject, FIG. 25): virtually no copper uptake in the liver | Absorption of orally-administered copper compared to penicillamine, trientine, or placebo ([2]; healthy subjects): significantly reduced | blood levels of 64Cu ([2]; healthy subjects): reduced | mean SUV liver / hepatic uptake of labeled copper, comparison between treatments ([2]; healthy subjects, 1 hour and 15 hours after oral 64Cu): significantly lower | reduction of mean hepatic copper uptake ([2]; healthy subjects, 1 hr scan post treatment, oral 64Cu, 7 days treatment): ~90% | range of reduction in hepatic copper uptake ([2]; healthy subjects, 13 hour scan): 60%-90% | mean SUV liver compared with baseline or placebo ([2]; healthy subjects, FIG. 26): markedly reduced | mean SUV 64Cu Pancreas post treatment ([2]; healthy subjects, after 1 hour): lower than penicllamine, trientine and placebo | mean SUV 64Cu Urinary bladder post treatment ([2]; healthy subjects, after 1 hour): lower than penicllamine, trientine and placebo | mean SUV 64Cu Colon post treatment [2, 3]: higher than penicillamine and placebo | mean SUV 64Cu Gallbladder post treatment [2, 3]: lower than penicllamine, trientine and placebo | AUEC(0-48 week) LBC, Mean (copper; Study 301, Adolescent): 1.5 mmol/L | AUEC(0-48 week) LBC, Median (copper; Study 301, Adolescent): 1.2 mmol/L | AUEC(0-48 week) PTC (plasma total copper), Mean (copper; Study 301, Adolescent): 7.5 mmol/L | AUEC(0-48 week) PTC (plasma total copper), Median (copper; Study 301, Adolescent): 5.4 mmol/L | AUEC(0-48 week) dNCC, Mean (copper; Study 301, Adolescent): 2.7 mmol/L | AUEC(0-48 week) dNCC, Median (copper; Study 301, Adolescent): 2.3 mmol/L | AUEC(0-48 week) LBC, Mean (copper; Study 301, Adult): 1.8 mmol/L | AUEC(0-48 week) LBC, Median (copper; Study 301, Adult): 1.2 mmol/L | AUEC(0-48 week) PTC (plasma total copper), Mean (copper; Study 301, Adult): 7.8 mmol/L | AUEC(0-48 week) PTC (plasma total copper), Median (copper; Study 301, Adult): 7.3 mmol/L | AUEC(0-48 week) dNCC, Mean (copper; Study 301, Adult): 3.2 mmol/L | AUEC(0-48 week) dNCC, Median (copper; Study 301, Adult): 2.2 mmol/L | Mean Daily dNCC AUEC0-48w, LSM Diff (SE), BC-TTM vs SoC (copper; Study 301, Cohort 1): 1.64 (0.254) μmol/L | Mean Daily dNCC AUEC0-48w, Mean (SD) (copper; Study 301, Cohort 1 (prior SoC >28 days)): 2.68 (2.118) μmol/L | Mean Daily dNCC AUEC0-48w, LSM (SE) (copper; Study 301, Cohort 1, ANCOVA): 2.50 (0.150) μmol/L | Mean Daily dNCC AUEC0-48w, Between Group LSM Diff (SE) (copper; [4]): 1.72 (0.277) μmol/L | Mean Daily dNCC AUEC0-48w, Within Group LSM (SE) (copper; [4]): 2.59 (0.165) μmol/L | Mean Daily dNCC AUEC0-48w, LSM Diff (SE), BC-TTM vs SoC (copper; Study 301, Cohort 2): 3.79 (0.584) μmol/L | Mean Daily dNCC AUEC0-48w, Mean (SD) (copper; Study 301, Cohort 2 (treatment-naïve or SoC ≤28 days)): 4.58 (2.526) μmol/L | Mean Daily dNCC AUEC0-48w, LSM (SE) (copper; Study 301, Cohort 2, ANCOVA): 4.76 (0.319) μmol/L | Mean Daily dNCC AUEC0-48w, Between Group LSM Diff (SE) (copper; [5]): 3.68 (0.568) μmol/L | Mean Daily dNCC AUEC0-48w, Within Group LSM (SE) (copper; [5]): 4.64 (0.315) μmol/L | time of peak of plasma dNCC (copper; Study 301, FIG. 2): 4 to 6 weeks | Mean Daily dNCC AUEC0-48w, LSM Diff (SE), BC-TTM vs SoC (copper; Study 301, Overall): 2.18 (0.244) μmol/L | Mean Daily dNCC AUEC0-48w, LSM (SE) (copper; Study 301, Overall, ANCOVA): 3.18 μmol/L and 3.18 (0.167) μmol/L | Mean Daily dNCC AUEC0-48w, Mean (SD) (copper; Study 301, Overall): 3.12 (2.347) μmol/L | Mean Daily dNCC AUEC0-48w, Between Group LSM Diff (SE) (copper; [6]): 2.12 (0.253) μmol/L | Mean Daily dNCC AUEC0-48w, Within Group LSM (SE) (copper; [6]): 3.06 (0.179) μmol/L
